The text below walks through data of patent US20060057069A1, “Detection of protein expression in vivo using fluorescent puromycin conjugates” (CALIFORNIA INSTITUTE OF TECHNOLOGY, priority 2004, published 2006).

Where a name gives a salt, the structure may show the parent alone. Read-outs that look alike come from different tables or passages of the source.

The subject of data set [1] is globin translation. Particulars: previously shown, ref [14]; read-out: IC50 (in vitro translation inhibition) from reference [14]; cited from earlier work.
The subject of data set [2] is globin translation. Kind of data set: In vitro potency determination: inhibition of globin mRNA translation in rabbit reticulocyte lysate. Format: biochemical. Particulars: read-out: IC50: concentration of puromycin conjugate required for 50% inhibition of globin translation, 30° C. 60 min, standard error <5% in replicates.
Experimental: Translation reactions containing [^35S]Met were mixed in batch on ice and added in aliquots to microcentrifuge tubes containing an appropriate amount of puromycin conjugate (or control molecule) dried in vacuo. […] Inhibitor, lysate preparation (including all components except template), and globin mRNA were mixed simultaneously and incubated at 30° C. for 60 min. Each reaction (2 μL) was combined with 8 μL of tricine loading buffer (80 mM Tris-Cl (pH 6.8), 200 mM DTT, 24% (v/v) glycerol, 8% sodium dodecyl sulfate (SDS), and 0.02% (w/v) Coomassie blue G-250), heated to 90° C. for 5 min, and applied entirely to a 4% stacking portion of a 15% tricine-SDS-polyacrylamide gel containing 20% (v/v) glycerol [29] (30 mA for 1 h, 30 min). Gels were fixed in 10% acetic acid (v/v) and 50% (v/v) methanol, dried, exposed overnight on a Phosphorlmager screen, and analyzed using a Storm Phosphorlmager (Molecular Dynamics).
Initial analysis began by examining the activity of each of the conjugates in vitro for their ability to inhibit protein translation.
Data set [3] relates to 16610D9 thymocyte cells. Kind of data set: Detection of protein synthesis events in live cells by flow cytometry (fluorescence labeling). The format is cell-based. The protocol: 16610D9 cells (0.5 million mL^−1) were combined with the various puromycin conjugates and control molecules resuspended in the minimum volume of PBS or media as described above. After a 24 h incubation, the cells were washed twice in 2 mL PBS+4% FCS and resuspended in PBS+4% FCS supplemented with 2% formaldehyde followed by incubation at 37° C. for 10 min or used directly after washing for immediate flow cytometry analysis.
In order to analyze the activity of puromycin conjugates in vivo, choosing of both an appropriate cell line and an appropriate quantitation and detection scheme was needed. While microscopy is a powerful means to analyze individual cells and small sections of tissue, performance of experiments where thousands to millions of cells could be examined for protein labeling was desired. Therefore, flow cytometry was chosen as the primary means to analyze uptake and incorporation of the conjugates. In addition to providing a quantitative measure of fluorescence and cell size, flow cytometry methods enable live cells and dead cells to be readily distinguished.
On the technique in general: In flow cytometry, cells or beads pass a laser one at a time.

Data set [4] concerns cultured hippocampal neurons. As to the kind of experiment: F2P (fluorescein-dC-puromycin) reporter of endogenous protein synthesis in cultured hippocampal neurons. Format: cell-based, rat. The settings on record: for effect of co-application on basal F2P fluorescence in dendrites: co-application with F2P. The protocol: Dissociated hippocampal neurons were prepared and maintained as previously described. Briefly, hippocampi from postnatal day 2 Sprague-Dawley rat pups were enzymatically and mechanically dissociated and plated into poly-lysine coated glass-bottom petri dishes (Mattek). Neurons were maintained for 14-21 days at 37° C. in growth medium (Neurobasal A supplemented with B27 and Glutamax-1, Invitrogen).
All images were acquired with an Olympus IX-70 confocal laser scanning microscope running Fluoview software (Olympus America, Inc). GFP, Alexa 488, and F2P were excited with the 488 nm line of an argon ion laser, and emitted light was collected between 510 and 550 nm. Alexa 568 was excited with the 568 nm line of a krypton ion laser, and emitted light was collected above 600 nm. In experiments where two channels were acquired simultaneously, settings were chosen to ensure no signal bleed-through between channels. For between-dish comparisons on a given day, all images were acquired at the same settings, without knowledge of the experimental condition during image acquisition. All post-acquisition processing and analysis was carried out with ImageJ (NIH) and Matlab (The MathWorks, Inc.). To facilitate the analysis of fluorescence signal as a function of distance from the soma, dendrites were linearized and extracted from the full-frame image using a modified version of the Straighten plugin for ImageJ.
To determine whether D1/D5 receptors activate the translation of endogenous mRNAs in living neurons, fluorescein-dC-puromycin (F2P), a novel protein synthesis reporter based on the peptidyl transferase inhibitor puromycin [35] was used. Because puromycin is a structural analog of an amino-acyl tRNA molecule, it enters ribosomes actively engaged in translation where it becomes covalently attached to the carboxy-terminus of nascent proteins through a peptide linkage. Initially, whether F2P can serve as a protein synthesis reporter in cultured hippocampal neurons was examined (FIGS. 11A, B). […] (FIG. 11B).

The subject of data set [5] is 16610D9 cells infected with MIG. As to the kind of experiment: Killing of MIG-infected (no PAC resistance) cells, flow cytometry. The settings on record: long exposure, 48 h incubation. The format is cell-based, mouse. The protocol:
(§1) The PAC gene was cloned into MIG using BgII and EcoRI restriction sites to yield MIGPAC. 293T-HEK fibroblasts (American Tissue Culture Collection) were co-transfected with pECL-Eco [30] and MIG or MIGPAC by calcium phosphate precipitation. After 12 hours, the precipitate was removed, cells were washed once with PBS, and 4 mL of fresh complete Dulbecco's Modified Eagle Medium (DMEM) supplemented with 10% fetal calf serum (FCS). Viral supernatant was removed 24 hours later and used in infection of 16610D9 cells. One million D9 cells were spin-infected with 0.4 mL of viral supernatant suplemented with 5 μg/ml Polybrene (Sigma-Aldrich).
(§2) 16610D9 cells infected with either MIG of MIGPAC were cultured in RPMI media with 10% FBS and grown at […] in a humidified atmosphere with 5% CO2. For each experiment, 16610D9 cells (0.25×10^6/well) were added to 24-well microtiter plates along with puromycin, puromycin-conjugate, and control molecules dissolved in the minimum amount of either media or PBS. After a 48 h incubation, the cells were washed twice in 2 mL PBS+4% FCS and resuspended in PBS+4% FCS supplemented with 2% formaldehyde along with incubation at 37° C. for 10 min. […]
(§3) Foreign genes can be inserted into D9 cells by infection with a viral vector (see Experimental Procedures). […] MIG expresses GFP so that infection efficiency can be monitored by GFP fluorescence (FIG. 7A). […]

In data set [6] the test system is 16610D9 cells infected with MIGPAC. Kind of data set: Enrichment of GFP(+) MIGPAC-infected (PAC-expressing) cells, flow cytometry. The format is cell-based, mouse. Particulars: 48 h; 4.3% GFP-positive before treatment. The protocol: as §1, §2, §3
Data set [7] concerns 16610D9 thymocyte cells. As to the kind of experiment: Western analysis of treated cells with anti-fluorescein antibody. The format is cell-based, mouse. The settings on record: conjugates 25 μM; anisomycin 250 ng/mL. The protocol: Live cell number was determined using trypan blue exclusion dye and each sample was adjusted to contain an equal number of live cells. Cell pellets were resuspended in 2× lysis buffer (100 mM β-glycerophosphate, 3 mM EGTA, 2 mM EDTA, 0.2 mM sodium-orthovanadate, 2 mM DTT, 20 μg/ml aprotinin, 20 μg/ml leupeptin, 50 μg/ml trypsin inhibitor, and 4 μg/ml pepstatin, and 1% Triton X-100) and incubated on ice for 30 min. Cell debris was removed by centrifugation at 20,000×g for 30 min. Cell lysate was combined with SDS loading buffer (0.12 M Tris-Cl (pH 6.8), 20% glycerol, 4% (w/v) SDS, 2% (v/v) β-mercaptoethanol, and 0.001% bromophenol blue) and heated at 90° C. for 10 min. Samples were applied entirely to a 4% stacking portion of a 10% glycine-SDS-polyacrylamide gel (30 mA for 1 h, 30 min). Protein was transferred using standard Western transfer techniques and the blot was probed with an anti-fluorescein antibody followed by an anti-rabbit-horseradish peroxidase conjugate (Pierce chemicals). The chemiluminescence reaction was carried out using the ECL PLUS Western Blotting […] System (Amersham BioSciences).
Action of puromycin and the conjugates should result in proteins bearing these compounds at their C-terminus in vivo. Western blot analysis of cellular lysates was chosen to examine if incorporation occurred in vivo and compare the resulting signal with the control conjugates. […]

Another data set has as its system dopamine D1/D5 receptor. As to the kind of experiment: GFP protein synthesis reporter imaging in cultured hippocampal neurons. The format is cell-based, rat. The settings on record: co-application with SKF.
A further data set relates to D1/D5 receptors. Kind of data set: Miniature excitatory postsynaptic currents (mEPSCs) in cultured hippocampal neurons. Format: cell-based, rat. Particulars: anisomycin with DHX; PKI6-22 in the recording pipette. The text has this:
Given the increase in the total and synaptic GluRl population, the effects of dopamine agonists on synaptic transmission was examined. To monitor synaptic strength before and after exposure to a dopamine agonist, miniature excitatory postsynaptic currents (mEPSCs) in cultured hippocampal neurons were examined.

[8] abbreviates: 24 h incubation, conjugates at 50 μM, live-cell gate.

Experimental for dopamine D1/D5 receptor: Dissociated hippocampal neurons were prepared and maintained as previously described [34]. Briefly, hippocampi from postnatal day 2 Sprague-Dawley rat pups were enzymatically and mechanically dissociated and plated into poly-lysine coated glass-bottom petri dishes (Mattek). Neurons were maintained for 14-21 days at 37° C. in growth medium (Neurobasal A supplemented with B27 and Glutamax-1, Invitrogen).
All images were acquired with an Olympus IX-70 confocal laser scanning microscope running Fluoview software (Olympus America, Inc). GFP, Alexa 488, and F2P were excited with the 488 nm line of an argon ion laser, and emitted light was collected between 510 and 550 nm. Alexa 568 was excited with the 568 nm line of a krypton ion laser, and emitted light was collected above 600 nm. […] To facilitate the analysis of fluorescence signal as a function of distance from the soma, dendrites were linearized and extracted from the full-frame image using a modified version of the Straighten plugin for ImageJ.
Dendrites were analyzed for time-lapse as follows: fluorescence was averaged across the width of linearized dendrites, generating a vector of mean pixel intensities equal to the length of the dendrite, ΔF/F (Ftn-Ft0/Ft0) was then computed at each pixel along the dendritic length. […]

biotin-puromycin: in the data set with globin translation [1], the IC50 is 54 µM.
Turning to fluorescein-dC-puromycin [F2P], the IC50 in the data set on globin translation [2] is 22 µM. Further, in the data set on 16610D9 thymocyte cells [3] (5 μM and 25 μM, live cell population), the “enhanced fluorescence relative to the F2A control molecule” value is recorded as “up to 4 fold”. Further, the “effect on cell viability” value in the data set with 16610D9 thymocyte cells [3] (5 μM and 25 μM, F2P statement for 48 hours incubation) was “kills the majority of cells”. Moreover, the “rank order of fluorescence enhancement” value in the data set with 16610D9 thymocyte cells [3] (setting [8]) is “DMT-F2P-Me (12)>FB2P (1)˜BF2P (8)>F2P (4)˜F2P-Me (10)>FP”. Further, the “F2P reporter fluorescence in neurons” value in data set [4] (brief (˜15 min) bath application) was “fluorescence detected in both the cell body and the dendrites”.
As to biotin-dC-puromycin, in the data set on globin translation [1], the IC50 is 11 µM.
As for `COc1ccc(C[C@H](N)C(=O)N[C@H]2[C@@H](O)[C@H](n3cnc4c(N(C)C)ncnc43)O[C@@H]2CO)cc1` [puromycin, L-Puromycin hydrochloride], the “effect on MIG infected cells (killing)” value in data set [5] is “almost complete killing of both GFP-positive and GFP-negative cells”. Moreover, the “GFP-positive cells in population after treatment” value in data set [6] was 94%. For the same molecule, in [4], the “effect of co-application on basal F2P fluorescence in dendrites” value is on record as “significantly attenuated”.
Consider `COc1ccc(C[C@H]2NC[C@H](O)[C@H]2OC(C)=O)cc1` [anisomycin], for which, in the data set on 16610D9 thymocyte cells [7], the “incorporation into cellular protein (anti-fluorescein Western signal)” value is “essentially no signal”. Also, the “effect of co-application on the effects of SKF on GFP signal” value in the data set on dopamine D1/D5 receptor is “completely prevented”. Moreover, the “effect of co-application on basal F2P fluorescence in dendrites” value in [4] is reported as “significantly attenuated”. Also, the “effect on DHX-produced enhancement of F2P incorporation” value in [4] (preincubation and perfusion with anisomycin, p<0.01) is “completely blocked”. The “effect on DHX-induced increase in mEPSC frequency” value with D1/D5 receptors was “completely prevented”.
For Fluorescein-puromycin [FP], in the data set with 16610D9 thymocyte cells [3] (setting [8]), the “rank order of fluorescence enhancement” value is “DMT-F2P-Me (12)>FB2P (1)˜BF2P (8)>F2P (4)˜F2P-Me (10)>FP” and the “relative level of fluorescence enhancement” value was “small fluorescence enhancement”. For the same molecule, the IC50 in the data set with globin translation [1] was 120 µM.
For the molecule `Oc1cc2c(cc1O)[C@H]1c3ccccc3CN[C@@H]1CC2` (racemic) [DHX, dihydrexidine], in data set [4] (perfused 15 minutes on dendritic segment, p<0.05, n=8 dendrites), the “F2P incorporation in locally perfused dendrites compared to control dendrites” value is “significantly greater F2P incorporation”.
